Data reported in ChEMBL document CHEMBL4842336, “Synthesis and computational studies of novel fused pyrimidinones as a promising scaffold with analgesic, anti-inflammatory and COX inhibitory potential” (Eur J Med Chem, 2021).

How the values were obtained:
[1] = Ulcerogenic activity in fasted albino rat assessed as severity of ulcers at 28 uM/kg, po administered for 3 consecutive days (reference value: 0 %); assay type: toxicity, organism-based; settings: in vivo, 72 h, time 3 day
[2] = tested on: Rattus norvegicus; test: Analgesic activity against p-benzoquinone induced writhing in albino rat model assessed as protection rate at 28 uM/kg, ip measured after 30 mins relative to control; assay type: functional; settings: 0.5 h, at 28 µmol/kg
[3] = Ulcerogenic activity in fasted albino rat assessed as ulcer index at 28 uM/kg, po administered for 3 consecutive days (reference value: 0); assay type: toxicity, organism-based; settings: in vivo, 72 h, time 3 day
[4] = tested on: Rattus norvegicus; test: Anti-inflammatory activity in Wistar albino rat model of carragenan-induced paw edema assessed as reduction in edema thickness at 28 uM/kg, ip measured after 3 hrs by plethysmometer (reference value: 1.64 +/- 0.04 millimeter); assay type: functional; design: scale not given: the % may be the effect or the level left; settings: at 28 µmol/kg
[5] = tested on: Rattus norvegicus; test: Anti-inflammatory activity Wistar albino rat model of carragenan-induced paw edema assessed as inhibition of inflammation at 28 uM/kg, ip measured after 3 hrs by plethysmometer relative to control; assay type: functional; design: scale not given: the % may be the effect or the level left; settings: at 28 µmol/kg
[6] = tested on: Rattus norvegicus; test: Anti-inflammatory activity in Wistar albino rat model of carragenan-induced paw edema assessed as inhibition of inflammation at 28 uM/kg, ip measured after 2 hrs by plethysmometer relative to control; assay type: functional
[7] = Ulcerogenic activity in fasted albino rat assessed as incidence of ulceration at 28 uM/kg, po administered for 3 consecutive days (reference value: 0 %); assay type: toxicity, organism-based; settings: in vivo, 72 h, time 3 day
[8] = Toxicity in albino rat assessed as decrease in body weight at; settings: in vivo, 24 h, dose <140 µM/Kg
[9] = target: T1, Prostaglandin G/H synthase 1 (Ovis aries, UniProt P05979); test: Inhibition of ovine COX-1 using arachidonic acid as substrate by fluorescence assay
T1 sequence (P05979 whole entry): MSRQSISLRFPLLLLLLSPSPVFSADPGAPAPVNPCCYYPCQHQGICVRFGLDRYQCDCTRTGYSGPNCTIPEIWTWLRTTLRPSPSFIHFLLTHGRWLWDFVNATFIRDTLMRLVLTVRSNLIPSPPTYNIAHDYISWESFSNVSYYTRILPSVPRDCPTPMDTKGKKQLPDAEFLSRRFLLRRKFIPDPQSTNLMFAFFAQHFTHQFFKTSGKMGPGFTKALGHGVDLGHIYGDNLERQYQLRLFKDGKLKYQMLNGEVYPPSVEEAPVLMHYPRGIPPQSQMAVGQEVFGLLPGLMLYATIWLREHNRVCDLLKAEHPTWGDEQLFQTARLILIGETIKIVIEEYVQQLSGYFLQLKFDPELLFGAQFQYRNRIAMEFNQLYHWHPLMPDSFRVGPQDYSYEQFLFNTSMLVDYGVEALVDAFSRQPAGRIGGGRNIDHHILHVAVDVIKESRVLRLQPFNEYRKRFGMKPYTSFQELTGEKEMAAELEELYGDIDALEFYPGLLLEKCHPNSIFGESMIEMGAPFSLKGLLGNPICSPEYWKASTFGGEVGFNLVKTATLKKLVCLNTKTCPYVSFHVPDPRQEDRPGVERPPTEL

[10] = tested on: Rattus norvegicus; test: Analgesic activity against p-benzoquinone induced writhing in albino rat model assessed as protection rate at 28 uM/kg, ip measured after 30 mins relative to indomethacin; assay type: functional; settings: 0.5 h, at 28 µmol/kg
[11] = tested on: Rattus norvegicus; test: Anti-inflammatory activity in Wistar albino rat model of carragenan-induced paw edema assessed as reduction in edema thickness at 28 uM/kg, ip measured after 2 hrs by plethysmometer (Rvb =1.6 +/- 0.12 millimeter); assay type: functional
[12] = Ulcerogenic activity in fasted albino rat assessed as number of ulcers at 28 uM/kg, po administered for 3 consecutive days (reference value: 0 %); assay type: toxicity, organism-based; settings: in vivo, 72 h, time 3 day

SMILES	Activity [1]	Activity [2]	UI [3]	Activity [4]	Activity [5]	Activity [6]	Activity [7]	Activity [8]	IC50 [9]	Activity [10]	Activity [11]	Activity [12]
Cc1nc2oc(-c3ccc(Cl)cc3)nn2c(=O)c1CCN1CCN(c2ccccc2)CC1	1%	83%	5.6	94.75%	70.73%	0.48 mm	4%	Non-Toxic	148 nM	100%	0.08 mm	0.6%
Cc1nc2oc(-c3ccccc3)nn2c(=O)c1CCN1CCN(c2ccccc2)CC1	–	50%	–	–	–	–	–	–	–	60%	–	–
Cc1nc2oc(-c3ccccc3)nn2c(=O)c1CCN1CCCCC1	1.2%	83%	7.4	76.25%	56.16%	0.7 mm	4%	Non-Toxic	350 nM	100%	0.38 mm	2.2%
Cc1nc2sc(-c3ccc(Cl)cc3)nn2c(=O)c1CCN1CCN(c2ccccc2)CC1	–	66%	–	–	–	–	–	–	–	60%	–	–
COc1ccc(N2CCN(CCc3c(C)nc4sc(-c5ccc(Cl)cc5)nn4c3=O)CC2)cc1	–	66%	–	–	–	–	–	–	–	60%	–	–
Cc1nc2sc(-c3ccc(Cl)cc3)nn2c(=O)c1CCN1CCOCC1	–	66%	–	–	–	–	–	–	–	80%	–	–
COc1ccc2c(c1)c(CC(=O)O)c(C)n2C(=O)c1ccc(Cl)cc1 [INDOMETHACIN]	1.18%	83%	11.78	73.29%	66.46%	0.55 mm	8%	–	–	100%	0.42 mm	2.6%
Cc1nc2sc(-c3ccc(Cl)cc3)nn2c(=O)c1CCN1CCCCC1	–	50%	–	–	–	–	–	–	–	60%	–	–
Cc1nc2oc(-c3ccc(Cl)cc3)nn2c(=O)c1CCN1CCOCC1	–	66%	–	–	–	–	–	–	–	80%	–	–
COc1ccc(N2CCN(CCc3c(C)nc4oc(-c5ccc(Cl)cc5)nn4c3=O)CC2)cc1	1%	83%	5.8	73.12%	91%	0.14 mm	4%	Non-Toxic	350 nM	100%	0.43 mm	0.8%
COc1ccc(N2CCN(CCc3c(C)nc4oc(-c5ccccc5)nn4c3=O)CC2)cc1	1%	100%	3.8	73.12%	61.7%	0.62 mm	2%	Non-Toxic	140 nM	120%	0.43 mm	0.8%
Cc1nc2oc(-c3ccccc3)nn2c(=O)c1CCN1CCOCC1	–	50%	–	–	–	–	–	–	–	60%	–	–
Cc1nc2oc(-c3ccc(Cl)cc3)nn2c(=O)c1CCN1CCCCC1	–	66%	–	–	–	–	–	–	–	80%	–	–
